Measurements taken from the supplement of paper PMC7244745.
± gives the uncertainty stated by the source.

Legend:
[1] = tested on: Klebsiella pneumoniae ATCC 13882; test: rate of pH (A557-A630) increase, Gompertz fit (10^-4 s-1); higher = faster ureolysis; extreme values may be limits of the assay
Method: (§1)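 Klebsiella pneumoniae ATCC 13882 (start OD600 0.05) grown in M9U medium with 40 mM urea and phenol red plus inhibitor, in triplicate in 96-well plates. A557 and OD630 were read every 15 min for 24 h. Ureolysis was followed as the pH-related A557-A630: onset time, Gompertz-fit rate and final value. Growth was followed as OD630.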

[2] = tested on: Klebsiella pneumoniae ATCC 13882; test: onset of ureolytic pH increase; higher = more delayed ureolysis (inhibition)
Method: as §1

[3] = tested on: Klebsiella pneumoniae ATCC 13882; test: final OD630 (growth) after 24 h; higher = more bacterial growth; extreme values may be limits of the assay
Method: as §1

[4] = tested on: Klebsiella pneumoniae ATCC 13882; test: final pH-related absorbance (A557-A630) after 24 h (absorbance units); higher = more ureolysis; extreme values may be limits of the assay
Method: as §1

NC(=O)CC[C@H](N)C(=O)O [L-glutamine]
rate of pH ([1]; 0.009 mM): 1.675 ± 0.015 | rate of pH ([1]; 0.091 mM): 1.74 ± 0.052 | rate of pH ([1]; 9.06 mM): 1.78 ± 0.018 | onset of ureolytic pH increase ([2]; 0.009 mM): 566.8 ± 3.4 min | onset of ureolytic pH increase ([2]; 0.091 mM): 555.8 ± 1.8 min | onset of ureolytic pH increase ([2]; 9.06 mM): 562.2 ± 3.9 min | final OD630 ([3]; 0.009 mM): 0.515 ± 0.01 | final OD630 ([3]; 0.091 mM): 0.549 ± 0.014 | final OD630 ([3]; 9.06 mM): 0.531 ± 0.0093 | final pH-related absorbance ([4]; 0.009 mM): 0.223 ± 0.0054 | final pH-related absorbance ([4]; 0.091 mM): 0.219 ± 0.005 | final pH-related absorbance ([4]; 9.06 mM): 0.222 ± 0.0029

N[C@@H](Cc1c[nH]cn1)C(=O)O [L-histidine]
rate of pH ([1]; 0.1 mM): 3.03 ± 0.049 | rate of pH ([1]; 1 mM): 3.09 ± 0.27 | rate of pH ([1]; 10 mM): 1.12 ± 0.078 | onset of ureolytic pH increase ([2]; 0.1 mM): 368.4 ± 3.6 min | onset of ureolytic pH increase ([2]; 1 mM): 411.2 ± 1.3 min | onset of ureolytic pH increase ([2]; 10 mM): 588 ± 5.9 min | final OD630 ([3]; 0.1 mM): 0.709 ± 0.008 | final OD630 ([3]; 1 mM): 0.706 ± 0.007 | final OD630 ([3]; 10 mM): 0.715 ± 0.026 | final pH-related absorbance ([4]; 0.1 mM): 0.485 ± 0.022 | final pH-related absorbance ([4]; 1 mM): 0.506 ± 0.007 | final pH-related absorbance ([4]; 10 mM): 0.63 ± 0.016

O.O.O.O.O.O.O.O=S(=O)([O-])[O-].[Mg+2] [Magnesium sulfate]
rate of pH ([1]; 0.1 mM): 2.16 ± 0.017 | rate of pH ([1]; 1 mM): 2.15 ± 0.021 | rate of pH ([1]; 10 mM): 2.01 ± 0.046 | onset of ureolytic pH increase ([2]; 0.1 mM): 568.1 ± 4.6 min | onset of ureolytic pH increase ([2]; 1 mM): 571 ± 7.1 min | onset of ureolytic pH increase ([2]; 10 mM): 555 ± 12 min | final OD630 ([3]; 0.1 mM): 0.553 ± 0.034 | final OD630 ([3]; 1 mM): 0.508 ± 0.0073 | final OD630 ([3]; 10 mM): 0.521 ± 0.0037 | final pH-related absorbance ([4]; 0.1 mM): 0.151 ± 0.0021 | final pH-related absorbance ([4]; 1 mM): 0.153 ± 0.0018 | final pH-related absorbance ([4]; 10 mM): 0.177 ± 0.0039

CNC(N)=O [Methylurea]
rate of pH ([1]; 0.1 mM): 1.54 ± 0.021 | rate of pH ([1]; 1 mM): 1.531 ± 0.014 | rate of pH ([1]; 10 mM): 1.551 ± 0.0041 | onset of ureolytic pH increase ([2]; 0.1 mM): 615.2 ± 1.6 min | onset of ureolytic pH increase ([2]; 1 mM): 615 ± 2.4 min | onset of ureolytic pH increase ([2]; 10 mM): 622.5 ± 0.96 min | final OD630 ([3]; 0.1 mM): 0.418 ± 0.0043 | final OD630 ([3]; 1 mM): 0.427 ± 0.0012 | final OD630 ([3]; 10 mM): 0.419 ± 0.0011 | final pH-related absorbance ([4]; 0.1 mM): 0.17 ± 0.0022 | final pH-related absorbance ([4]; 1 mM): 0.174 ± 0.001 | final pH-related absorbance ([4]; 10 mM): 0.173 ± 0.001

NC(=O)CN(CC(=O)O)CC(=O)O [N-(2-acetamido)iminodiacetic acid]
rate of pH ([1]; 0.0035 mM): 1.791 ± 0.016 | rate of pH ([1]; 0.0351 mM): 1.805 ± 0.018 | rate of pH ([1]; 0.351 mM): 1.77 ± 0.053 | onset of ureolytic pH increase ([2]; 0.0035 mM): 570 ± 8.3 min | onset of ureolytic pH increase ([2]; 0.0351 mM): 562.4 ± 3 min | onset of ureolytic pH increase ([2]; 0.351 mM): 581.8 ± 1.1 min | final OD630 ([3]; 0.0035 mM): 0.548 ± 0.048 | final OD630 ([3]; 0.0351 mM): 0.519 ± 0.0043 | final OD630 ([3]; 0.351 mM): 0.511 ± 0.0089 | final pH-related absorbance ([4]; 0.0035 mM): 0.217 ± 0.0022 | final pH-related absorbance ([4]; 0.0351 mM): 0.218 ± 0.0017 | final pH-related absorbance ([4]; 0.351 mM): 0.219 ± 0.0049

O=C(O)CNc1ccc(O)cc1 [N-(4-Hydroxyphenyl)glycine]
rate of pH ([1]; 0.001 mM): 2.079 ± 0.0047 | rate of pH ([1]; 0.011 mM): 2.81 ± 0.3 | rate of pH ([1]; 0.112 mM): 0.632 ± 0.057 | onset of ureolytic pH increase ([2]; 0.001 mM): 571.6 ± 1.1 min | onset of ureolytic pH increase ([2]; 0.011 mM): 809 ± 15 min | onset of ureolytic pH increase ([2]; 0.112 mM): 0 min | final OD630 ([3]; 0.001 mM): 0.438 ± 0.009 | final OD630 ([3]; 0.011 mM): 0.357 ± 0.005 | final OD630 ([3]; 0.112 mM): 0 | final pH-related absorbance ([4]; 0.001 mM): 0.183 ± 0.003 | final pH-related absorbance ([4]; 0.011 mM): 0.107 ± 0.013 | final pH-related absorbance ([4]; 0.112 mM): 0.331 ± 0.042

O=C1C=CC(=O)N1c1ccccc1 [N-phenylmaleimide]
rate of pH ([1]; 0.039 mM): 1.67 ± 0.056 | rate of pH ([1]; 0.39 mM): 0 | rate of pH ([1]; 3.9 mM): 0 | onset of ureolytic pH increase ([2]; 0.039 mM): 781 ± 9.3 min | onset of ureolytic pH increase ([2]; 0.39 mM): > 1500 min | onset of ureolytic pH increase ([2]; 3.9 mM): > 1500 min | final OD630 ([3]; 0.039 mM): 0.448 ± 0.07 | final OD630 ([3]; 0.39 mM): 0 | final OD630 ([3]; 3.9 mM): 0 | final pH-related absorbance ([4]; 0.039 mM): 0.136 ± 0.0029 | final pH-related absorbance ([4]; 0.39 mM): 0 | final pH-related absorbance ([4]; 3.9 mM): 0

CNC(=O)NC [N.N'-Dimethylurea]
rate of pH ([1]; 0.1 mM): 1.69 ± 0.054 | rate of pH ([1]; 1 mM): 1.77 ± 0.022 | rate of pH ([1]; 10 mM): 0.0814 ± 0.0017 | onset of ureolytic pH increase ([2]; 0.1 mM): 592.2 ± 2.8 min | onset of ureolytic pH increase ([2]; 1 mM): 784 ± 29 min | onset of ureolytic pH increase ([2]; 10 mM): 0 min | final OD630 ([3]; 0.1 mM): 0.502 ± 0.0051 | final OD630 ([3]; 1 mM): 0.411 ± 0.018 | final OD630 ([3]; 10 mM): 0 | final pH-related absorbance ([4]; 0.1 mM): 0.213 ± 0.004 | final pH-related absorbance ([4]; 1 mM): 0.197 ± 0.095 | final pH-related absorbance ([4]; 10 mM): 0.456 ± 0.0086
